# Measured values published in US20210196724A1, “BIARYL COMPOSITIONS AND METHODS FOR MODULATING A KINASE CASCADE” (Athenex, Inc., priority 2016, published 2021).
# Key:
# U87 cells = assay: MTT cell growth inhibition (GI50), U87; format: cell-based, human; conditions: 3 days
# Protocol: The drug concentration required to block net cell growth by 50% relative to a control sample is measured as the GI50. The GI50s for several of the compounds of the application were assayed as described.
# MTT assay: U87 and GL261 cells were seeded in 96-well plate (6×10^3 cells in 100 μl of DMEM+10% FBS media per well) and incubated overnight at 37° C. with 5% CO2. All test compounds were diluted (10 point 2-fold serial dilution) in a separate 96-well plate to yield 10× of final concentrations (0.5-256 nM). A volume of 11 μl of 10× dilutions was added to appropriate wells (n=3). To value (reflecting the starting number of cells upon drug treatment) was determined by following steps as described below. After 3 days incubation at 37° C. with 5% CO2, 10 μl of MTT solution (5 mg/ml in PBS) was added to each well and plates were incubated at 37° C. for 3 h to allow MTT to form formazan crystals by reacting with metabolically active cells. 100 μl of 20% SDS was added to each well and plates were incubated overnight at 37° C. with 5% CO2. Afterward, OD570 was measured using microplate reader. The cell growth percentage of control was calculated according to percentage of control=(T−T0)/(C−T0)×100% or OD value of the test well exposure to test drug—OD value at time zero/(OD of the control well without drug treatment−OD value at time zero)×100%. Growth inhibition curves and GI50 were determined using GraphPad Prism 5 software.
# [1] = Brain permeability (brain:plasma ratio); format: in vivo; conditions: read-out: Brain:Plasma (B:P) Average
# Protocol: Brain permeability can be measured by various methods known in the art. For example, brain permeability can be measured by calculating the ratio between the concentration of a compound of the application in the brain and the concentration of the compound in the plasma (i.e., BP ratio). In one aspect, a compound of the application has a B:P ratio of at least 1.0, 1.1, 1.2, 1.3, 1.4, 1.5, 1.6, 1.7, 1.8, 1.9, or 2.0 at 1 hour after administration of the compound to a subject. In one aspect, a compound of the application has a B:P ratio of at least 1.5, 1.6, 1.7, 1.8, 1.9, or 2.0 at 1 hour after administration of the compound to a subject. In one aspect, a compound of the application has a B:P ratio of at least 1.4, 1.5, 1.6, 1.7, 1.8, 1.9, 2.0, 2.1, 2.2, or 2.3 at 2 hours after administration of the compound to a subject. In one aspect, a compound of the application has a B:P ratio of at least 1.9, 2.0, 2.1, 2.2, or 2.3 at 2 hours after administration of the compound to a subject. In one aspect, a compound of the application has a B:P ratio of at least 1.7, 1.8, 1.9, 2.0, 2.1, 2.2, 2.3, 2.4, or 2.5 at 4 hours after administration of the compound to a subject. In one aspect, a compound of the application has a B:P ratio of at least 2.2, 2.3, 2.4, or 2.5 at 4 hours after administration of the compound to a subject.
# [2] = test system: U87-luc human glioblastoma subcutaneous xenograft; assay: U87-luc human glioblastoma subcutaneous xenograft tumor model; format: in vivo, athymic nude mice
# From the text: The anti-tumor activity of Compound 121, as a single agent, was studied in a U87-luc human glioblastoma subcutaneous xenograft tumor model. Significant endpoints were used to assess the treatment effects on subcutaneous tumor growth, as determined by tumor growth inhibition.
# Human glioblastoma U87 cells (1×10^6 cells) were implanted into the right flank of athymic nude mice via subcutaneous injection. Dosing was initiated when the average tumor size reached 90-100 mm^3, which was designated as Day 1.
# Compound 121 was dosed at 5 mg/kg once per day through Days 1-7 and dosed 2.5 mg/kg once per day through Days 15-21. A control group of mice (N=7) was administered a vehicle per the same schedule. Tumor volume was determined every 2 to 3 days via bidimensional caliper measurements. Body weight and general observations were recorded.
# The mice were euthanized once the tumor reached 2000 mm^3 in volume.
# Tumor growth inhibition (TGI) was calculated with the following formula:
# TGI=(1−(mean volume of treated tumors)/(mean volume of control tumors))×100.
# [3] = Day 12, orally dosed 5 mg/kg once per day Days 1-7
compound,measurement,setting,value
Cc1cc(N2CCOC[C@@H]2C)ccc1-c1ccc(CC(=O)NCc2ccc(F)cc2)nc1 [Compound 121],GI50,U87 cells,5.2 nM
same,Kp at 0.25 h,[1]; time point 0.25 h,1.08
same,Kp at 0.5 h,[1]; time point 0.5 h,1.37
same,Kp at 1 h,[1]; time point 1 h,1.53
same,Kp at 2 h,[1]; time point 2 h,1.93
same,Kp at 4 h,[1]; time point 4 h,2.29
same,Kp at 6 h,[1]; time point 6 h,1.66
same,Kp at 8 h,[1]; time point 8 h,1.24
same,Tumor growth (tumor volumes in individual mice over time),"[2]; 5 mg/kg once per day Days 1-7, 2.5 mg/kg once per day Days 15-21",repressed tumor growth
same,Mean tumor volume compared to the control group,"[2]; Day 12, P<0.05",significantly reduced
same,% TGI (tumor growth inhibition),[2]; [3],76.8%
same,Mean Tumor Volume ± SEM,[2]; [3],442.9 ± 67.2 mm3
same,Time to terminal sacrifice (based on tumor volume) compared to control,"[2]; P<0.05, 5 mg/kg Days 1-7, 2.5 mg/kg Days 15-21",significantly extended
